{"source": "the supplement of paper PMC10307832", "assay_in_all_cases": "relative viability (nuclei count vs DMSO), 5 days (fraction); higher = more cells survive", "key": {"Venetoclax + Lapatinib": {"compound": "CC1(C)CCC(CN2CCN(c3ccc(C(=O)NS(=O)(=O)c4ccc(NCC5CCOCC5)c([N+](=O)[O-])c4)c(Oc4cnc5[nH]ccc5c4)c3)CC2)=C(c2ccc(Cl)cc2)C1 [Venetoclax] + CS(=O)(=O)CCNCc1ccc(-c2ccc3ncnc(Nc4ccc(OCc5cccc(F)c5)c(Cl)c4)c3c2)o1 [Lapatinib] (partner 2 µM)", "in_short": "(§1)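 Relative viability equals treated-well nuclei counts divided by vehicle-well nuclei counts. Counts came from 4× images of lung cancer cell lines grown in 1536-well plates for 5 days after pin-tool dosing on the day after seeding. Dosing used one drug alone or a fixed anchor-drug dose plus five library-drug doses (not always all listed) in √10 steps, and values are medians of duplicate plates.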"}, "Venetoclax + Linsitinib": {"compound": "CC1(C)CCC(CN2CCN(c3ccc(C(=O)NS(=O)(=O)c4ccc(NCC5CCOCC5)c([N+](=O)[O-])c4)c(Oc4cnc5[nH]ccc5c4)c3)CC2)=C(c2ccc(Cl)cc2)C1 [Venetoclax] + C[C@]1(O)C[C@@H](c2nc(-c3ccc4ccc(-c5ccccc5)nc4c3)c3c(N)nccn32)C1 [Linsitinib] (partner 1 µM)", "in_short": "as §1"}, "Selumetinib + Vorinostat": {"compound": "Cn1cnc2c(F)c(Nc3ccc(Br)cc3Cl)c(C(=O)NOCCO)cc21 [Selumetinib] + O=C(CCCCCCC(=O)Nc1ccccc1)NO [Vorinostat] (partner 1 µM)", "in_short": "as §1"}, "Selumetinib + Trametinib": {"compound": "Cn1cnc2c(F)c(Nc3ccc(Br)cc3Cl)c(C(=O)NOCCO)cc21 [Selumetinib] + CC(=O)Nc1cccc(-n2c(=O)n(C3CC3)c(=O)c3c(Nc4ccc(I)cc4F)n(C)c(=O)c(C)c32)c1 [Trametinib] (partner 0.02 µM)", "in_short": "as §1"}}}
{"cell line": "UMC-11", "values": [{"measurement": "relative viability", "setting": "Venetoclax + Lapatinib; first compound 0.01 µM", "value": 0.828}, {"measurement": "relative viability", "setting": "Venetoclax + Lapatinib; first compound 0.03162 µM", "value": 0.942}, {"measurement": "relative viability", "setting": "Venetoclax + Lapatinib; first compound 0.1 µM", "value": 0.712}, {"measurement": "relative viability", "setting": "Venetoclax + Lapatinib; first compound 0.3162 µM", "value": 0.928}, {"measurement": "relative viability", "setting": "Venetoclax + Lapatinib; first compound 1 µM", "value": 0.912}, {"measurement": "relative viability", "setting": "Venetoclax + Linsitinib; first compound 0.01 µM", "value": 1}, {"measurement": "relative viability", "setting": "Venetoclax + Linsitinib; first compound 0.03162 µM", "value": 1.01}, {"measurement": "relative viability", "setting": "Venetoclax + Linsitinib; first compound 0.1 µM", "value": 0.912}, {"measurement": "relative viability", "setting": "Venetoclax + Linsitinib; first compound 0.3162 µM", "value": 0.932}, {"measurement": "relative viability", "setting": "Venetoclax + Linsitinib; first compound 1 µM", "value": 0.959}, {"measurement": "relative viability", "setting": "Selumetinib + Vorinostat; first compound 0.02 µM", "value": 0.387}, {"measurement": "relative viability", "setting": "Selumetinib + Vorinostat; first compound 0.06325 µM", "value": 0.285}, {"measurement": "relative viability", "setting": "Selumetinib + Vorinostat; first compound 0.2 µM", "value": 0.348}, {"measurement": "relative viability", "setting": "Selumetinib + Vorinostat; first compound 0.6325 µM", "value": 0.368}, {"measurement": "relative viability", "setting": "Selumetinib + Trametinib; first compound 0.02 µM", "value": 0.562}, {"measurement": "relative viability", "setting": "Selumetinib + Trametinib; first compound 0.06325 µM", "value": 0.703}, {"measurement": "relative viability", "setting": "Selumetinib + Trametinib; first compound 0.2 µM", "value": 0.879}, {"measurement": "relative viability", "setting": "Selumetinib + Trametinib; first compound 0.6325 µM", "value": 0.812}]}
